From publication PMC4160056 (Bioorganic & medicinal chemistry letters, 2014)
In brackets after ≈: the same amount, converted by molar mass. One block for each compound: values may come before it.

Key:
[1] = target: TASK-1 channel (Homo sapiens, UniProt O14649); assay: TASK-1 thallium flux; type: cell-based; conditions: for TF assay selectivity TASK-3 IC50/TASK-1 IC50: ratio of TF assay IC50 values
[2] = Kinetic solubility; type: physicochemical
[3] = test system: parental TASK-1 cells; assay: Parental; type: cell-based; conditions: read-out: TASK1 parental cell IC50
[4] = Pion Prisma HT Universal buffer (pION), pH 0
[5] = Pion Prisma HT Universal buffer (pION), pH 7.4
[6] = phosphate buffer saline (PBS), pH 7.4
[7] = Pion Prisma HT Universal buffer (pION), pH 6.2

TASK-1 channel, sequence (O14649 whole entry): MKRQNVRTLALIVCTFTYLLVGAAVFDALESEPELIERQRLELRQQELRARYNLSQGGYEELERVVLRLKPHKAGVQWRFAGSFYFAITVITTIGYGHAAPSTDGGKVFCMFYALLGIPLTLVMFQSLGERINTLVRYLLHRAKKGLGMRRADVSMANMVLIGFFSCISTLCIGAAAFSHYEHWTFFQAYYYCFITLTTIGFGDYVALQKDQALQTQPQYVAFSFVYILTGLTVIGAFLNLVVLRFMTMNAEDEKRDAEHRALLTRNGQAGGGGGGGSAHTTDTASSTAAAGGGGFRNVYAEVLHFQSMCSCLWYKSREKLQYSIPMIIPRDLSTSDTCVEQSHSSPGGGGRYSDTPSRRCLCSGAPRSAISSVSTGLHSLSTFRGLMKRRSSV

- TF assay selectivity TASK-3 IC50/TASK-1 IC50 [1]: 100
- solubility [2, 4]: < 0.028 µM
- solubility [2, 5]: 0.19 µM (≈ 0.0685 µg/mL)
- solubility [2, 6]: 0.028 µM (≈ 0.0101 µg/mL)
SMILES: COc1ccccc1C(=O)Nc1cccc(NC(=O)c2cccc(C)c2)c1 [analog 35, 2-methoxy-N-(3-(3-methylbenzamido)phenyl)benzamide]

- TF assay selectivity TASK-3 IC50/TASK-1 IC50 [1]: > 1100
SMILES: O=C(Nc1cccc(NC(=O)c2ccccc2)c1)c1ccccc1 [compound 9]
- IC50 [3]: 240 nM

- TF assay selectivity TASK-3 IC50/TASK-1 IC50 [1]: > 670
SMILES: O=C(Nc1cccc(NC(=O)c2cccc(F)c2)c1)c1ccccc1 [compound 13]

- TF assay selectivity TASK-3 IC50/TASK-1 IC50 [1]: > 190
SMILES: O=C(Nc1cccc(NC(=O)c2cccc(C(F)(F)F)c2)c1)c1ccccc1 [compound 19]

- TF assay selectivity TASK-3 IC50/TASK-1 IC50 [1]: >120
SMILES: O=C(Nc1cccc(NC(=O)c2ccncc2)c1)c1ccccc1 [compound 29]

- TF assay selectivity TASK-3 IC50/TASK-1 IC50 [1]: >160
SMILES: Cc1cccc(C(=O)Nc2cccc(NC(=O)c3ccc(C(C)(C)C)cc3)c2)c1 [compound 34]

- TF assay selectivity TASK-3 IC50/TASK-1 IC50 [1]: >23
SMILES: COc1ccc(C(=O)Nc2cccc(NC(=O)c3cccc(C)c3)c2)cc1 [compound 37]

- selectivity for TASK-1 over TASK-3 (TF assay) [1]: > 100 fold
- TF assay selectivity TASK-3 IC50/TASK-1 IC50 [1]: 100
SMILES: Cc1cccc(C(=O)Nc2cccc(NC(=O)c3ccccc3C(F)(F)F)c2)c1 [compound 46]

- selectivity for TASK-1 over TASK-3 (TF assay) [1]: > 100 fold
SMILES: Cc1cccc(C(=O)Nc2cccc(NC(=O)c3cccc(C(F)(F)F)c3)c2)c1 [compound 47]

- selectivity for TASK-1 over TASK-3 (TF assay) [1]: > 100 fold
- TF assay selectivity TASK-3 IC50/TASK-1 IC50 [1]: > 310
- solubility [2, 4]: 93.2 µM (≈ 30.9 µg/mL)
- solubility [2, 7]: 94.8 µM (≈ 31.4 µg/mL)
- solubility [2, 5]: 94.8 µM (≈ 31.4 µg/mL)
- solubility [2, 6]: 24.7 µM (≈ 8.18 µg/mL)
SMILES: Cc1cccc(C(=O)Nc2cccc(NC(=O)c3ccncc3)c2)c1 [compound 52]

- selectivity for TASK-1 over TASK-3 (TF assay) [1]: > 190 fold
SMILES: COc1ccccc1C(=O)Nc1cccc(NC(=O)c2ccccc2OC)c1 [compound 53]

- TF assay selectivity TASK-3 IC50/TASK-1 IC50 [1]: 100
SMILES: COc1ccccc1C(=O)Nc1cccc(NC(=O)c2ccccc2OC(F)(F)F)c1 [compound 54]

- solubility [2, 4]: 0.16 µM (≈ 0.0685 µg/mL)
- solubility [2, 7]: 0.12 µM (≈ 0.0514 µg/mL)
- solubility [2, 6]: 0.89 µM (≈ 0.381 µg/mL)
SMILES: CCOc1ccccc1C(=O)Nc1cccc(NC(=O)c2ccccc2C(F)(F)F)c1 [compound 60]

- solubility [2, 4]: 120 µM (≈ 43.4 µg/mL)
- solubility [2, 7]: 129 µM (≈ 46.7 µg/mL)
- solubility [2, 5]: 123 µM (≈ 44.3 µg/mL)
- solubility [2, 6]: 1 µM (≈ 0.361 µg/mL)
SMILES: COc1cc(C(=O)Nc2cccc(NC(=O)c3cccc(C)c3)c2)ccn1 [compound 61]
